The test system of this test is zinc finger protein metallothionein (MT). Nature of the test: Zinc-finger disruption assay (zinc release from metallothionein, PAR absorbance at 500 nm). Type of test: biochemical. Here is the method:
Biochem. Biophys. 287:175-179, 1991; and Fliss, H.; Ménard, M., “Oxidant-induced mobilization of zinc from metallothionein” Arch. Biochem. Biophys. 293:195-199, 1991. Briefly, the assay is conducted as follows. The assay is performed in a cuvet containing the zinc finger protein metallothionein (MT), and the metallochromic indicator 4-(2-pyridylazo)resorcinol (PAR).

On to `OCl` [hypochlorous acid], for which the “release of zinc in the zinc-finger assay (PAR absorbance)” value (100 μmol/L) is “rapid”. Consider `NCl` [monochloramine], for which the “zinc-finger disruption (PAR absorbance)” value (25 μmol/L) is on record as “increase in PAR absorbance”. For `N[C@@H](Cc1ccccc1)C(=O)O` [phenylalanine], under “500 μmol/L”, the “release of zinc in the zinc-finger assay (PAR absorbance)” value is recorded as “negligible”.
